Data on one compound can be found in paper PMC3400326 (Pharmacogenomics and personalized medicine, 2011).

In one test the target is SULT1A1 (Homo sapiens, UniProt P50225). Put plainly: intrinsic fluorescence titration. In kind it is binding.
For the next test, the target named is T1, SULT1E1 (Homo sapiens, UniProt P49888).
T1 sequence (P49888 1-294): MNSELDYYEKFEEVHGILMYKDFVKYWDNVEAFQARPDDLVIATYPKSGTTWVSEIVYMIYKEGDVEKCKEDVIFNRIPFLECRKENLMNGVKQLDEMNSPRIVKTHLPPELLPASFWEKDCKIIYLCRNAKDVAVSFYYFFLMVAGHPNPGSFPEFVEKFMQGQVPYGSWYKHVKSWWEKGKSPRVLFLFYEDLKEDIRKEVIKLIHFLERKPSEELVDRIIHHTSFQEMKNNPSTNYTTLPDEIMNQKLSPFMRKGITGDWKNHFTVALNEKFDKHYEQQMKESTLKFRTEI
Put plainly: intrinsic fluorescence titration. The test is classed as binding.

SULT1A1, sequence (P50225 whole entry): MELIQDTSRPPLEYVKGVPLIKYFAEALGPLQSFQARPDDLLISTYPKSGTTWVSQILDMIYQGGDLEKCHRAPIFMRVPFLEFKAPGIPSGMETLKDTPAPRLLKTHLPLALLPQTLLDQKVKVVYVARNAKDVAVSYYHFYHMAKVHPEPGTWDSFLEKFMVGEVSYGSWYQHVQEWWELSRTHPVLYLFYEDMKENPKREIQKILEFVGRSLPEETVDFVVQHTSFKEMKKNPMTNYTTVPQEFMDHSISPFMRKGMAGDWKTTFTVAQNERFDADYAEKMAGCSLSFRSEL

Turning to `C[C@]12CC[C@@H]3c4ccc(O)cc4C[C@@H](CCCCCCCCC[S+]([O-])CCCC(F)(F)C(F)(F)F)[C@H]3[C@@H]1CC[C@@H]2O` (some centres unmarked) [fulvestrant], the Kd at SULT1A1 stood at 2300 ± 400 nM; on SULT1E1 it was 200 ± 20 nM.

A word on the Kd: it is a measure of binding affinity in units of concentration.
